Patent publication US20090324708A1, “COMPOUND HAVING INHIBITORY ACTIVITY ON A RHO-GTPASE CELL PROTEIN, A PROCESS FOR OBTAINING THE SAME, PHARMACEUTICAL COMPOSITIONS COMPRISING THEREOF AND A METHOD FOR THE TREATMENT OF RHO-GTPASE CELL PROTEIN-MEDIATED CONDITION” (Universidad Nacional De Quilmes, priority 2006, published 2009)
Marks after values point to notes of the source that are not given here.

How the values were obtained:
Assay type in all cases: cell-based, mouse
[1] = system: breast carcinoma F3II cells; assay: Monolayer wound assay of tumor cell migration; settings: for No of migrating cells: overnight, MEM with 10% FBS
Protocol: The present assay consists in the determination of the antimigration effect of the selected compounds on the breast carcinoma cells migration. Cell motility is a key process in the invasion and tumor metastasis processes and it is closely regulated by the Rho-GTPases family, particularly by Rac.
Tumor cell migration in vitro was measured by the “monolayer wound” assay described previously (Alonso D F, Farias E F, Urtreger A, Ladeda V, Vidal M C and Bal de Kier Joffé E: Characterization of F3II, a mammary sarcomatoid carcinoma cell line originated from a mouse adenocarcinoma. J. Surgh. Oncol 1996, 62: 288-297). 0.5 mm width lines were made in confluent monolayers. After washing with PBS, the tumor cells were incubated overnight in MEM with 10% FBS and the monolayers were fixed and stained with methylene blue. The number of cells that moved along the free space were counted by using a 0.36 mm^2 graded grid, using a magnification of 100×, in 3 independent fields per each line.
Doses from 1 to 50 μM of the compounds were assessed, thereby finding a saturation of the antimigration effect in the 3 compounds studied, starting from 10 μM, obtaining an approximate inhibition of 30 to 50% respectively.

[2] = system: breast carcinoma F3II cells; assay: Effect on quiescent F3II cells / cytotoxicity (toluidine staining and MTT assay); settings: absence of FBS; for cytotoxic effect: 100 μM, 24 hours, semiconfluent monolayers, toluidine and MTT assay; for IC50: Quiescent Cells, F3II, 24 hs
Protocol: (§1) The antiproliferative effect of the above mentioned compounds on breast carcinoma F3II cells is disclosed in the present example. The synthesized compounds are purine nucleoside derivatives which present chemical modifications in either the ribose and/or in the base. These modifications mainly consisted in acetylations of positions 2′-3′ of the ribose, varying the number of carbon atoms of the acyl substituents in position 5′. The cells were treated for 72 hours in the presence of fetal bovine serum 10% with different doses of the compounds, with the aim of determining the inhibitory concentration 50% (IC50). The cell growth was estimated by toluidine test, for which the cell monolayers were fixed with formalin (Formol 10%) and stained with toluidine blue 0.5%. Subsequently, the stained cells were thoroughly washed with PBS and solubilized with 1% SDS. Finally, the number of cells was estimated by measuring the absorbance values at 595 nm. The IC50 values of the compounds Nucl 1, Nucl 4 and Nucl 5, both for cells in the exponential growth phase and for quiescent cells, are depicted in Table 2.
In addition, the effect of the analogs showing antiproliferative effect on quiescent cells, was studied in order to discriminate between an antitumoral effect and an unspecific cytotoxic effect. For this purpose, the semiconfluent cell monolayers were incubated for 24 hours in the absence of FBS with the analogs Nucl 1, Nucl 4 and Nucl 5, at a concentration of 100 μM. Subsequently, the cells were fixed and stained with toluidine in order to determine the number of cells. Simultaneously, the cytotoxic effect was determined by the MTT assay.

[3] = system: breast carcinoma F3II cells; assay: Antiproliferative effect on growing F3II cells (toluidine test); settings: 10% fetal bovine serum
Source text: as §1, with “The cells were treated for 72 hours in the presence of fetal bovine serum 10% with different doses of the compounds, with the aim of determining the inhibitory concentration 50% (IC50).” left out

IC50 ([3]; Mus musculus, 48 hs, read-out: IC50 48 hs) [µM] | IC50 ([3]; Mus musculus, 72 hs, read-out: IC50 72 hs) [µM] | IC50 ([3]; 48 hs, read-out: IC50 48 hs) [µM] | IC50 ([3]; 72 hs, read-out: IC50 72 hs) [µM] | SMILES | No of migrating cells ([1]; 10 μM) | inhibition at 10 µM ([1]; Mus musculus) [%] | cytotoxic effect [2] | IC50 ([2]; Mus musculus) [µM] | Inhibition % (cell migration) ([1]; 10 μM) [%] | IC50 [2] [µM]
26 | 68 | – | – | CC(=O)OC[C@H]1O[C@@H](n2cnc3c(=O)[nH]c(N)nc32)[C@H](OC(C)=O)[C@@H]1OC(C)=O [Nucl 1, 2′,3′,5′-tri-O-acetyl-guanosine] | 97.7* | 32.2 | In none of the cases a cytotoxic effect was observed | > 100 | – | –
– | – | 60 | 56 | CC(=O)OC[C@H]1O[C@@H](n2cnc3c(Cl)ncnc32)[C@H](OC(C)=O)[C@@H]1OC(C)=O [Nucl 4, 6-chloro-2′,3′,5′-tri-O-acetyl-purine riboside] | 85.5** | – | In none of the cases a cytotoxic effect was observed | – | 40.6 | > 100
